Experiments:
[1] = Fluid (supercritical or subcritical phases), coriolis meter
[2] = xn = mol fraction of the nth substance listed; conditions: Fluid (supercritical or subcritical phases), coriolis meter

O=C=O [carbon dioxide]
[1]
Conditions	mass density [kg/m3]
291.3 K, 6100 kPa	817
291.5 K, 7100 kPa	834
291.7 K, 8100 kPa	849
291.9 K, 9200 kPa	861
292 K, 10200 kPa	872
292.1 K, 15200 kPa	916
292.1 K, 20200 kPa	948
292.1 K, 25300 kPa	975
292.1 K, 30100 kPa	997

COC [dimethyl ether]
[1]
Conditions	mass density [kg/m3]
288.5 K, 4100 kPa	684
288.6 K, 5100 kPa	686
288.8 K, 6100 kPa	688
289 K, 7200 kPa	690
289.1 K, 8200 kPa	691
289.1 K, 9200 kPa	693
289.3 K, 10000 kPa	694
289.3 K, 15000 kPa	703
289.3 K, 20000 kPa	711
289.4 K, 25000 kPa	718
289.5 K, 30000 kPa	725

COC [dimethyl ether] + O=C=O
[2]
Conditions	mass density [kg/m3]
288.5 K, 4100 kPa, x1 = 1	684
288.6 K, 5100 kPa, x1 = 1	686
288.8 K, 6100 kPa, x1 = 1	688
289 K, 7200 kPa, x1 = 1	690
289.1 K, 8200 kPa, x1 = 1	691
289.1 K, 9200 kPa, x1 = 1	693
289.3 K, 10000 kPa, x1 = 1	694
289.3 K, 15000 kPa, x1 = 1	703
289.3 K, 20000 kPa, x1 = 1	711
289.4 K, 25000 kPa, x1 = 1	718
289.5 K, 30000 kPa, x1 = 1	725
290.2 K, 4100 kPa, x1 = 0.251	806
290.7 K, 30100 kPa, x1 = 0.251	908
291.8 K, 25200 kPa, x1 = 0.251	892
291.9 K, 10100 kPa, x1 = 0.251	834
291.9 K, 15200 kPa, x1 = 0.251	857
291.9 K, 20200 kPa, x1 = 0.251	875
292 K, 8100 kPa, x1 = 0.251	824
292 K, 9200 kPa, x1 = 0.251	829
292.1 K, 6100 kPa, x1 = 0.251	811
292.1 K, 7100 kPa, x1 = 0.251	817
292.2 K, 5100 kPa, x1 = 0.251	805
292.5 K, 4000 kPa, x1 = 0.458	769
292.5 K, 5200 kPa, x1 = 0.458	773
292.6 K, 6100 kPa, x1 = 0.458	776
292.7 K, 7100 kPa, x1 = 0.458	780
292.8 K, 8200 kPa, x1 = 0.458	783
293 K, 9200 kPa, x1 = 0.458	786
293.1 K, 10200 kPa, x1 = 0.458	789
293.2 K, 15200 kPa, x1 = 0.458	804
293.4 K, 20200 kPa, x1 = 0.458	817
293.5 K, 25300 kPa, x1 = 0.458	830
293.7 K, 29300 kPa, x1 = 0.458	839
293.7 K, 30000 kPa, x1 = 0.458	840

O=C=O [carbon dioxide] + COC
[2], x2 = 0
Conditions	mass density [kg/m3]
291.3 K, 6100 kPa	817
291.5 K, 7100 kPa	834
291.7 K, 8100 kPa	849
291.9 K, 9200 kPa	861
292 K, 10200 kPa	872
292.1 K, 15200 kPa	916
292.1 K, 20200 kPa	948
292.1 K, 25300 kPa	975
292.1 K, 30100 kPa	997

Source: the NIST ThermoML archive (doi:10.1016/j.fluid.2010.07.009)
